Experimental data published in PMC10436262, “Structure-Based Design of Inhibitors of the m^6A-RNA Writer Enzyme METTL3” (ACS Bio & Med Chem Au, 2023).
“And” between values parts separate entries of the source, which are not always exact repeats. Equal entries are not always repeated. Where two headings read alike, the source gives them in different places.

Biological target: T1, METTL3/METTL14 (Homo sapiens, UniProt Q86U44)
T1 construct: made in house; host or cells: Sf9 insect cells (baculovirus)
Experiment: METTL3 enzymatic inhibition assay by homogeneous time-resolved fluorescence (HTRF)
Type: biochemical
Settings: for IC50: HTRF assay; for fold improvement in affinity (IC50) vs compound 4: relative to reference compound 4; for S/R Ratio: ratio of IC50 of S isomer to R isomer
Protocol: Compound potencies were evaluated by using a previously reported METTL3 inhibition assay. […] Tested compounds that inhibit METTL3 decrease the m^6A level and thus reduce the HTRF signal. The biochemical assay was performed, as described previously.[19] The IC50 values derived from fitting a dose–response curve to the data using nonlinear regression. The IC50 values are given as an average of at least two independent measurements for each compound in the text.

[1] = racemic mixture, read-out: IC50
[2] = R isomer, read-out: IC50 (µM) R
[3] = S isomer, read-out: IC50 (µM) S

T1 sequence (Q86U44 whole entry): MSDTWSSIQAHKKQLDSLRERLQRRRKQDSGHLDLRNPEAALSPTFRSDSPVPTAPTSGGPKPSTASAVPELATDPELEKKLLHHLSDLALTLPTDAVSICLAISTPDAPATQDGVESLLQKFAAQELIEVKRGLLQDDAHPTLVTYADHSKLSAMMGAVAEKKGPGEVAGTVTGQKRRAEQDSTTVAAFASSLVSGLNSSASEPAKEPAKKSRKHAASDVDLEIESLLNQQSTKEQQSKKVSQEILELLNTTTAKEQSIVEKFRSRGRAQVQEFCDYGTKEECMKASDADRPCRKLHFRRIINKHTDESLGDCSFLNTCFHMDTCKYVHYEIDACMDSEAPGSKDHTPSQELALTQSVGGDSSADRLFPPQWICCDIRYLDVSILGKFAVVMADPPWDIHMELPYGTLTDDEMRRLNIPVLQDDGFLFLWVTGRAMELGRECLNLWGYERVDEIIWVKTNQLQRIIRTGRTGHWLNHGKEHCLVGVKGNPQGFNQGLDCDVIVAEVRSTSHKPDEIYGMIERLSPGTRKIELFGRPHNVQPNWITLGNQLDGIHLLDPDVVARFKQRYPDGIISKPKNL
T1 sequence (Q9HCE5 whole entry partner): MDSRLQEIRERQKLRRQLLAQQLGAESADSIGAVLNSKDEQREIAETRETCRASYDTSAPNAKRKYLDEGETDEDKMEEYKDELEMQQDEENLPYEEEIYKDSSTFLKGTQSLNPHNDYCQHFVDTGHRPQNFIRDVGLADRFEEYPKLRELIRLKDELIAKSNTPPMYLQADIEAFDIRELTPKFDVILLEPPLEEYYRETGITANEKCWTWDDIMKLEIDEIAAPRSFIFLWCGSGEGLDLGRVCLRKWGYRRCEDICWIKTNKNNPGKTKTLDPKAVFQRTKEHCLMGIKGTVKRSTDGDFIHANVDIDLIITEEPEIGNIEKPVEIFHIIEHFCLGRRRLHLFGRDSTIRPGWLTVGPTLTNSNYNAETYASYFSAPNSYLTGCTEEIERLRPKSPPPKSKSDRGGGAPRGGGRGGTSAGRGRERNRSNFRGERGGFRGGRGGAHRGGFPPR

Row | IC50 [1] [µM] | SMILES | other results
1 | 430 | CNc1cc(N2CCCC(O)(CNC(=O)c3ccc(CN4CCCCC4)cc3)C2)ncn1 (stereo not drawn) [compound 1] | –
2 | 16 | CNc1cc(N2CCCC(O)(CNC(=O)c3ccc(CN4CCC(C)CC4)cc3)C2)ncn1 (stereo not drawn) [compound 3] | –
3 | 179 | CNc1cc(N2CCCC(O)(CNC(=O)c3ccc(CN4CCNCC4)cc3)C2)ncn1 (stereo not drawn) [compound 5] | –
4 | 230 | CCC1CCN(Cc2ccc(C(=O)NCC3(O)CCCN(c4cc(NC)ncn4)C3)cc2)CC1 (stereo not drawn) [compound 6] | –
5 | 42 | CNc1cc(N2CCCC(O)(CNC(=O)c3ccc(CN4CCC(C)(N)CC4)cc3)C2)ncn1 (stereo not drawn) [compound 7] | –
6 | 32 | CNc1cc(N2CCCC(O)(CNC(=O)c3ccc(CN4CCC(C)(CN)CC4)cc3)C2)ncn1 (stereo not drawn) [compound 8] | –
7 | 2.1 | CC1(C)CCN(Cc2ccc(C(=O)NCC3(O)CCCN(c4cc(NCc5cccc6nc[nH]c56)ncn4)C3)cc2)CC1 (stereo not drawn) [compound 9] | –
8 | 0.82 | CC1(C)CCN(Cc2ccc(C(=O)NCC3(O)CCCN(c4cc(NCc5cccc6sccc56)ncn4)C3)cc2)CC1 (stereo not drawn) [compound 10] | fold improvement in affinity (IC50) vs compound 4: 10 fold
9 | > 10 | CC1(C)CCN(Cc2ccc(C(=O)NCC3(O)CCCN(c4cc(NCc5ccoc5)ncn4)C3)cc2)CC1 (stereo not drawn) [compound 11] | –
10 | 1.8 | CC1(C)CCN(Cc2ccc(C(=O)NCC3(O)CCCN(c4cc(NCc5ccsc5)ncn4)C3)cc2)CC1 (stereo not drawn) [compound 12] | –
11 | 12 | CC(Nc1cc(N2CCCC(O)(CNC(=O)c3ccc(CN4CCC(C)(C)CC4)cc3)C2)ncn1)c1ccccc1 (stereo not drawn) [compound 13] | –
12 | 31 | CC1(C)CCN(Cc2ccc(C(=O)NCC3(O)CCCN(c4cc(NC(C)(C)c5ccccc5)ncn4)C3)cc2)CC1 (stereo not drawn) [compound 14] | –
13 | 0.77 | CC1(C)CCN(Cc2ccc(C(=O)NCC3(O)CCCN(c4cc(NCc5cccc6ccccc56)ncn4)C3)cc2)CC1 (stereo not drawn) [compound 15] | fold improvement in affinity (IC50) vs compound 4: 10 fold
14 | 1.7 | CC1(C)CCN(Cc2ccc(C(=O)NCC3(O)CCCN(c4cc(NCc5ccccc5)ncn4)C3)cc2)CC1 (stereo not drawn) [compound 16] | IC50 [2]: 1.2 µM; IC50 [3]: 7.1 µM; fold difference in activity between R and S configurations (R more active than S): ~6 fold; S/R Ratio: 5.9; fold improvement in affinity (IC50) vs compound 4: 4.8 fold
15 | 3.3 | O=C(NCC1(O)CCCN(c2cc(NCc3ccccc3)ncn2)C1)c1ccc(CN2CCC3(CC2)CC3)cc1 (stereo not drawn) [compound 17] | –
16 | 4.7 | CCC1(C)CCN(Cc2ccc(C(=O)NCC3(O)CCCN(c4cc(NCc5ccccc5)ncn4)C3)cc2)CC1 (stereo not drawn) [compound 18] | –
17 | 5.5 | CCCCC1(C)CCN(Cc2ccc(C(=O)NCC3(O)CCCN(c4cc(NCc5ccccc5)ncn4)C3)cc2)CC1 (stereo not drawn) [compound 19] | –
18 | 17.6 | CC1(CCO)CCN(Cc2ccc(C(=O)NCC3(O)CCCN(c4cc(NCc5ccccc5)ncn4)C3)cc2)CC1 (stereo not drawn) [compound 20] | –
19 | 23 | CC(F)C1CCN(Cc2ccc(C(=O)NCC3(O)CCCN(c4cc(NCc5ccccc5)ncn4)C3)cc2)CC1 (stereo not drawn) [compound 21] | –
20 | 23 | CC1(F)CC12CCN(Cc1ccc(C(=O)NCC3(O)CCCN(c4cc(NCc5ccccc5)ncn4)C3)cc1)CC2 (stereo not drawn) [compound 22] | –
21 | 15 | CC(C)C1(O)CN(Cc2ccc(C(=O)NCC3(O)CCCN(c4cc(NCc5ccccc5)ncn4)C3)cc2)C1 (stereo not drawn) [compound 23] | –
22 | 8.4 | CC1(O)CCN(Cc2ccc(C(=O)NCC3(O)CCCN(c4cc(NCc5ccccc5)ncn4)C3)cc2)CC1 (stereo not drawn) [compound 24] | –
23 | > 10 | CCCCN(Cc1ccc(C(=O)NCC2(O)CCCN(c3cc(NCc4ccccc4)ncn3)C2)cc1)C1CCCCC1 (stereo not drawn) [compound 26] | –
24 | 9.3 | CC1(C)CN(Cc2ccc(C(=O)NCC3(O)CCCN(c4cc(NCc5ccccc5)ncn4)C3)cc2)C1 (stereo not drawn) [compound 27] | –

Row | IC50 [1] [µM] | SMILES | other results
25 | 7.4 | CCC(CC)CNCc1ccc(C(=O)NCC2(O)CCCN(c3cc(NCc4ccccc4)ncn3)C2)cc1 (stereo not drawn) [compound 28] | –
26 | 1.6 | O=C(NCC1(O)CCCN(c2cc(NCc3ccccc3)ncn2)C1)c1ccc(CN2CC3(CCC3)C2)cc1 (stereo not drawn) [compound 29] | IC50 [2]: 0.53 µM; IC50 [3]: 1.3 µM; S/R Ratio: 2.5
27 | 0.13 | CC(C)C1N(Cc2ccc(C(=O)NCC3(O)CCCN(c4cc(NCc5ccccc5)ncn4)C3)cc2)CC12CCC2 (stereo not drawn) [compound 30] | –
28 | 7.7 | O=C(NCC1(O)CCCN(c2cc(NCc3ccccc3)ncn2)C1)c1ccc(CN2CC3(CCCC3)C2)cc1 (stereo not drawn) [compound 32] | –
29 | 5.1 | CC(C)CNCc1ccc(C(=O)NCC2(O)CCCN(c3cc(NCc4ccccc4)ncn3)C2)cc1 (stereo not drawn) [compound 33] | –
30 | 17.7 | CC(C)CCNCc1ccc(C(=O)NCC2(O)CCCN(c3cc(NCc4ccccc4)ncn3)C2)cc1 (stereo not drawn) [compound 34] | –
31 | 5 | CC(C)(C)CNCc1ccc(C(=O)NCC2(O)CCCN(c3cc(NCc4ccccc4)ncn3)C2)cc1 (stereo not drawn) [compound 35] | –
32 | 5.2 | O=C(NCC1(O)CCCN(c2cc(NCc3ccccc3)ncn2)C1)c1ccc(CNCC2CCC2)cc1 (stereo not drawn) [compound 36] | –
33 | > 10 | CCCN(Cc1ccc(C(=O)NCC2(O)CCCN(c3cc(NCc4ccccc4)ncn3)C2)cc1)C1CCCC1 (stereo not drawn) [compound 37] | –
34 | > 10 | CCCN(Cc1ccc(C(=O)NCC2(O)CCCN(c3cc(NCc4ccccc4)ncn3)C2)cc1)C1CCCCC1 (stereo not drawn) [compound 38] | –
35 | > 10 | CCCCN(Cc1ccc(C(=O)NCC2(O)CCCN(c3cc(NCc4ccccc4)ncn3)C2)cc1)C1CCCC1 (stereo not drawn) [compound 39] | –
36 | 14 | O=C(NCC1(O)CCCN(c2cc(NCc3ccccc3)ncn2)C1)c1ccc(CN2CCCCC2)cc1 (stereo not drawn) [compound 40] | –
37 | 12 | CC1CCN(Cc2ccc(C(=O)NCC3(O)CCCN(c4cc(NCc5ccccc5)ncn4)C3)cc2)C2CCCCC12 (stereo not drawn) [compound 41] | –
38 | 8.4 | O=C(NCC1(O)CCCN(c2cc(NCc3ccccc3)ncn2)C1)c1ccc(CN2CCCC3CCCCC32)cc1 (stereo not drawn) [compound 42] | –
39 | 1.1 | CSc1cc(CN2CCC(C)(C)CC2)ccc1C(=O)NCC1(O)CCCN(c2cc(NCc3ccccc3)ncn2)C1 (stereo not drawn) [compound 44] | –
40 | 10 | CC1(C)CCN(Cc2ccc(C(=O)NCC3(O)CCCN(c4cc(NCc5ccccc5)ncn4)C3)cn2)CC1 (stereo not drawn) [compound 45] | –
41 | 0.36 | CC1(C)CCN(Cc2ccc3c(NCC4(O)CCCN(c5cc(NCc6ccccc6)ncn5)C4)cccc3c2)CC1 (stereo not drawn) [compound 46] | IC50 [2]: 0.2 µM; IC50 [3]: 12 µM; S/R Ratio: 60.0; fold improvement in affinity (IC50) vs compound 16 (relative to reference compound 16): 5 fold and 4.7 fold
42 | 2.9 | CC1(C)CCN(Cc2ccc3nc(CC4(O)CCCN(c5cc(NCc6ccccc6)ncn5)C4)[nH]c3c2)CC1 (stereo not drawn) [compound 47] | –
43 | 5.1 | CC1(C)CCN(Cc2ccc(N3CC4(CCN(c5cc(NCc6ccccc6)ncn5)CC4)OCC3=O)cn2)CC1 [compound 48] | –
44 | 60 | CC1(C)CCN(CCCCC(=O)NCC2(O)CCCN(c3cc(NCc4ccccc4)ncn3)C2)CC1 (stereo not drawn) [compound 49] | –
45 | 0.27 | CC(C)C1N(Cc2ccc(C(=O)NCC3(O)CCCN(c4cc(NCc5ccccc5)ncn4)C3)c(O)c2)CC12CCC2 (stereo not drawn) [compound 50] | –
46 | 0.19 | CNC(=O)c1cccc(CNc2cc(N3CCCC(O)(CNC(=O)c4ccc(CN5CCC(C)(C)CC5)cc4O)C3)ncn2)c1 (stereo not drawn) [compound 51] | –
47 | 0.3 | CC1(C)CCN(Cc2ccc(C(=O)NCC3(O)CCCN(c4cc(NCc5cccc(S(N)(=O)=O)c5)ncn4)C3)c(O)c2)CC1 (stereo not drawn) [compound 52] | –

Row | SMILES | IC50 [1] [µM] | other results
48 | CNc1cc(N2CCCC(O)(CNC(=O)c3ccc(CN4CCC(C)(C)CC4)cc3)C2)ncn1 (stereo not drawn) [compound 4] | 8.2 | fold improvement in affinity (IC50) vs compound 1 (relative to hit compound 1): 50 fold and 52.4 fold
